Measured values published in paper PMC11484808, “Streamlined analysis of drug targets by proteome integral solubility alteration indicates organ-specific engagement” (Nature Communications, 2024).

Biological target: T1, Pirin (Homo sapiens, UniProt O00625)
T1 construct: gene PIR; recombinant human pirin (Abcam, ab123170)
T1 sequence (O00625 1-290): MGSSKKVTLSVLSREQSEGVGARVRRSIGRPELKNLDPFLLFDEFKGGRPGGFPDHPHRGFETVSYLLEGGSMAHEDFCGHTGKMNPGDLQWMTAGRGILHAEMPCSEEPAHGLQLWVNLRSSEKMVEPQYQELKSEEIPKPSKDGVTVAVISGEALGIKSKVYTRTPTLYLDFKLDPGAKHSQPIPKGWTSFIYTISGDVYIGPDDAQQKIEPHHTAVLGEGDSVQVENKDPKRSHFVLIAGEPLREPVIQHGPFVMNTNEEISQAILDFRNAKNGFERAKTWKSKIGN
Test: SPR (Biacore T200), steady state; also TPP-PISA stabilization in extracts
Assay type: binding

Compound: CC(C)Cc1ccc(C(C)C(=O)O)cc1 (stereo not shown) [Ibuprofen]
- Kd: ~546 µM
